Values joined by “and” are separate entries in the source; they are usually repeats but may differ in a detail not shown here. Equal values may be shown once. Records with an inconclusive call do not appear.

The results in this text go back to PubChem BioAssay AID296 (DTP/NCI, 2004).

For the assay, the system named is MX-1 breast xenograft, nude mice, tumor weight T/C. In words: NCI In Vivo Anticancer Drug Screen. Data for tumor model Human Mammary Carcinoma MX-1 Xenograft (intrarenal inoculation) in NU/NU Swiss (nude) mice. The conditions noted are these: endpoint: mean tumor weight change, higher = larger tumour. The method in brief:
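Antitumour effect measured in vivo against vehicle controls, expressed as T/C.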

Where [1] appears, read: dose: 25.0 mg/kg/injection, schedule: Q01DX010 (sc), vehicle: Klucel (hydroxypropylcellulose) (HPC).
Setting [2] is: dose: 100.0 mg/kg/injection, schedule: Q01DX010 (sc), vehicle: Klucel (hydroxypropylcellulose) (HPC).
[3] abbreviates: dose: 200.0 mg/kg/injection, schedule: Q01DX010 (sc), vehicle: Klucel (hydroxypropylcellulose) (HPC).
Setting [4] is: dose: 25.0 mg/kg/injection, schedule: Q01DX010 (sc), vehicle: saline with Tween-80.
Setting [5] is: dose: 100.0 mg/kg/injection, schedule: Q01DX010 (sc), vehicle: saline with Tween-80.
[6] abbreviates: dose: 200.0 mg/kg/injection, schedule: Q01DX010 (sc), vehicle: saline with Tween-80.

Consider `CSC(SC)=C1C(=O)NC(=O)NC1=O`, for which the T/C was 69 % of control (dose: 75.0 mg/kg/injection, schedule: Q04DX003 (sc), vehicle: suspension in saline); 75 % of control (dose: 150.0 mg/kg/injection, schedule: Q04DX003 (sc), vehicle: suspension in saline); 108 % of control (dose: 300.0 mg/kg/injection, schedule: Q04DX003 (sc), vehicle: suspension in saline); 42 % of control (dose: 600.0 mg/kg/injection, schedule: Q04DX003 (sc), vehicle: suspension in saline).
For `O=C(CCBr)N1CCN(C(=O)CCBr)CC1`, the T/C reads like this: (dose: 4.5 mg/kg/injection, schedule: Q01DX010 (sc), vehicle: Klucel (hydroxypropylcellulose) (HPC)) 111 % of control; (dose: 12.5 mg/kg/injection, schedule: Q01DX010 (sc), vehicle: Klucel (hydroxypropylcellulose) (HPC)) 52 % of control; (dose: 18.0 mg/kg/injection, schedule: Q01DX010 (sc), vehicle: Klucel (hydroxypropylcellulose) (HPC)) 33 % of control and 48 % of control; under setting [1], 19 % of control; (dose: 36.0 mg/kg/injection, schedule: Q01DX010 (sc), vehicle: Klucel (hydroxypropylcellulose) (HPC)) 1 % of control and 9 % of control.
As to `O=C(/C=C(\Cl)C(=O)NO)NO`, the T/C is 93 % of control (dose: 50.0 mg/kg/injection, schedule: Q04DX003 (sc), vehicle: saline); 80 % of control (dose: 100.0 mg/kg/injection, schedule: Q04DX003 (sc), vehicle: saline); 77 % of control (dose: 200.0 mg/kg/injection, schedule: Q04DX003 (sc), vehicle: saline).
Take `O=C(Nc1ccc(C2=NCCN2)cc1)c1ccc(C(=O)Nc2ccc(C3=NCCN3)cc2)c(Cl)c1`: the T/C reads like this: (dose: 75.0 mg/kg/injection, schedule: Q04DX003 (sc), vehicle: water) 81 % of control; (dose: 150.0 mg/kg/injection, schedule: Q04DX003 (sc), vehicle: water) 49 % of control; (dose: 300.0 mg/kg/injection, schedule: Q04DX003 (sc), vehicle: water) 21 % of control.
`O=c1[nH]c(=O)n([C@H]2CCCO2)cc1F`: the T/C by setting is: under setting [2], 112 % of control; under setting [3], 97 % of control; (dose: 800.0 mg/kg/injection, schedule: Q01DX010 (sc), vehicle: Klucel (hydroxypropylcellulose) (HPC)) 123 % of control.
`CC1(C)CC1(Br)Br`: the T/C is, setting by setting: under setting [4], 71 % of control; under setting [5], 118 % of control; under setting [6], 153 % of control.
For `CCCCCC[Se][Se]CCCCCC`, the T/C is, setting by setting: (dose: 75.0 mg/kg/injection, schedule: Q04DX003 (sc), vehicle: Klucel (hydroxypropylcellulose) (HPC)) 98 % of control; (dose: 150.0 mg/kg/injection, schedule: Q04DX003 (sc), vehicle: Klucel (hydroxypropylcellulose) (HPC)) 80 % of control; (dose: 300.0 mg/kg/injection, schedule: Q04DX003 (sc), vehicle: Klucel (hydroxypropylcellulose) (HPC)) 102 % of control and 114 % of control.
As to `CC(/C=C/c1ccccc1)=Nc1ccccc1`, the T/C by setting is: (dose: 150.0 mg/kg/injection, schedule: Q04DX003 (sc), vehicle: saline with Tween-80) 71 % of control; (dose: 300.0 mg/kg/injection, schedule: Q04DX003 (sc), vehicle: saline with Tween-80) 83 % of control; (dose: 600.0 mg/kg/injection, schedule: Q04DX003 (sc), vehicle: saline with Tween-80) 69 % of control; (dose: 1200.0 mg/kg/injection, schedule: Q04DX003 (sc), vehicle: saline with Tween-80) 93 % of control.
Regarding `C[PH+](C)C.C[PH+](C)C.[Au]`, the T/C reads like this: (dose: 5.0 mg/kg/injection, schedule: Q04DX003 (sc), vehicle: suspension in saline) 157 % of control; (dose: 10.0 mg/kg/injection, schedule: Q04DX003 (sc), vehicle: suspension in saline) 156 % of control; (dose: 20.0 mg/kg/injection, schedule: Q04DX003 (sc), vehicle: suspension in saline) 160 % of control.
For the compound `Nc1ncnc2c1ccn2C1OC(CO)C(O)C1O` (centres undefined), the T/C is, setting by setting: (dose: 1.0 mg/kg/injection, schedule: Q01DX010 (sc), vehicle: Klucel (hydroxypropylcellulose) (HPC)) 101 % of control; (dose: 2.0 mg/kg/injection, schedule: Q01DX010 (sc), vehicle: Klucel (hydroxypropylcellulose) (HPC)) 157 % of control; (dose: 4.0 mg/kg/injection, schedule: Q01DX010 (sc), vehicle: Klucel (hydroxypropylcellulose) (HPC)) 75 % of control.
In the case of `NC(=O)NO`, the T/C by setting is: (dose: 200.0 mg/kg/injection, schedule: Q01DX010 (sc), vehicle: saline) 44 % of control; (dose: 400.0 mg/kg/injection, schedule: Q01DX010 (sc), vehicle: saline) 49 % of control.
With `NC(=O)c1cc(Cl)nc2nc(Cl)nc(N)c12`, the T/C is, setting by setting: (dose: 150.0 mg/kg/injection, schedule: Q04DX003 (ip), vehicle: saline with Tween-80) 112 % of control; (dose: 300.0 mg/kg/injection, schedule: Q04DX003 (ip), vehicle: saline with Tween-80) 108 % of control; (dose: 600.0 mg/kg/injection, schedule: Q04DX003 (ip), vehicle: saline with Tween-80) 90 % of control; (dose: 1200.0 mg/kg/injection, schedule: Q04DX003 (ip), vehicle: saline with Tween-80) 93 % of control.
Turning to `Cc1ccc2c(c1)C(=O)N(CC[P+](c1ccccc1)(c1ccccc1)c1ccccc1)C2=O`, the T/C (dose: 25.0 mg/kg/injection, schedule: Q04DX003 (sc), vehicle: Klucel (hydroxypropylcellulose) (HPC)) is 110 % of control.
For the compound `CC(=O)NC(CCc1ccc(Cl)c(Cl)c1)c1cccc(O)c(=O)c1` (centres undefined), the T/C (dose: 50.0 mg/kg/injection, schedule: Q04DX003 (sc), vehicle: Klucel (hydroxypropylcellulose) (HPC)) is 95 % of control; the T/C (dose: 100.0 mg/kg/injection, schedule: Q04DX003 (sc), vehicle: Klucel (hydroxypropylcellulose) (HPC)) is 69 % of control; the T/C (dose: 200.0 mg/kg/injection, schedule: Q04DX003 (sc), vehicle: Klucel (hydroxypropylcellulose) (HPC)) was 90 % of control; the T/C (dose: 400.0 mg/kg/injection, schedule: Q04DX003 (sc), vehicle: Klucel (hydroxypropylcellulose) (HPC)) is 119 % of control.
As to `Cn1cnc([N+](=O)[O-])c1S(=O)(=O)NCN1CCOCC1`, the T/C by setting is: under setting [1], 94 % of control; (dose: 50.0 mg/kg/injection, schedule: Q01DX010 (sc), vehicle: Klucel (hydroxypropylcellulose) (HPC)) 76 % of control; under setting [2], 94 % of control; under setting [3], 78 % of control.
Consider `N#Cc1nc(C#N)c(Sc2ccccc2)c(Sc2ccccc2)c1Sc1ccccc1`, for which the T/C is, setting by setting: under setting [4], 57 % of control; under setting [5], 24 % of control; under setting [6], 80 % of control.
On to `Clc1ccc(C2SC=Cc3ccccc32)cc1` (centres undefined), for which the T/C is 90 % of control (dose: 600.0 mg/kg/injection, schedule: Q04DX003 (sc), vehicle: Klucel (hydroxypropylcellulose) (HPC)) and 115 % of control (dose: 1200.0 mg/kg/injection, schedule: Q04DX003 (sc), vehicle: Klucel (hydroxypropylcellulose) (HPC)).
With `Nc1ncnc2c1ncn2C1C=C(CO)C(O)C1O` (centres undefined), the T/C (dose: 3.75 mg/kg/injection, schedule: Q04DX003 (sc), vehicle: saline) was 88 % of control; the T/C (dose: 7.5 mg/kg/injection, schedule: Q04DX003 (sc), vehicle: saline) is 75 % of control; the T/C (dose: 15.0 mg/kg/injection, schedule: Q04DX003 (sc), vehicle: saline) was 64 % of control.
`O=C(O)CC(NC(=O)CP(=O)(O)O)C(=O)O` (centres undefined): the T/C (dose: 50.0 mg/kg/injection, schedule: Q01DX010 (sc), vehicle: saline) is 117 % of control; the T/C (dose: 100.0 mg/kg/injection, schedule: Q01DX010 (sc), vehicle: saline) is 25 % of control and 34 % of control.
